Target: T1, recombinant human 11 β-HSD1 (Homo sapiens, UniProt P28845)
T1 construct: made in house; host or cells: E. coli
Assay: 11 β-HSD1 SPA Assay (Scintillation Proximity Assay)
Type: biochemical
Outline: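 E. coli-expressed human enzyme (30-100 nM) with tritiated cortisone 40 nM and NADPH 1 mM in HEPES buffer pH7.4, 2 hours at room temperature. Stopped with protein A SPA beads carrying anti-cortisol antibody and glycyrrhetinic acid; counted after overnight incubation. IC50 from percent inhibition between no-enzyme and no-compound signals.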

T1 sequence (P28845 whole entry): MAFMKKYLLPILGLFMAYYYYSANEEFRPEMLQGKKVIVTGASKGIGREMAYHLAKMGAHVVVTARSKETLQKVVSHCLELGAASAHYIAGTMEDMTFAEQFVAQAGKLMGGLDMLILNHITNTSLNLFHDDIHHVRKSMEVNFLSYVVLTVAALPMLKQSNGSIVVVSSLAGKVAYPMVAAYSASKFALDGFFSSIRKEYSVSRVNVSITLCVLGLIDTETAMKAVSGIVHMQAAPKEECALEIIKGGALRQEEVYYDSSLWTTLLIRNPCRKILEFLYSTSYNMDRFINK

Compound | IC50
CC(C)(Oc1ccc(Cl)cn1)C(=O)N[C@H]1C[C@H]2CC[C@@H](C1)N2c1ccc(C(=O)NCC(F)(F)F)cn1 [Example 108, 6-[3-endo-({2-[(5-chloropyridin-2-yl)oxy]-2-methylpropanoyl}amino)-8-azabicycio[3.2.1]oct-8-yl]-N-(2,2,2-trifluoroethyl)pyridine-3-carboxamide] | < 200 nM
C[C@H](NC(=O)c1ccc(N2C3CCC2CC(NC(=O)C(C)(C)Oc2ccc(F)cc2C(F)F)C3)nc1)C(F)(F)F (stereo partly drawn) [Example 418, 6-[3-endo-({2-[2-(difluoromethyl)-4-fluorophenoxy]-2-methylpropanoyl}amino)-8-azabicyclo[3.2.1]oct-8-yl]-N-[(2S)-1,1,1-trifluoropropan-2-yl]pyridine-3-carboxamide] | < 200 nM
CC(C)(Sc1ccc(Cl)cc1Cl)C(=O)N[C@H]1C[C@H]2CC[C@@H](C1)N2c1ccc(C(N)=O)cn1 [Example 286, 6-[3-endo-({2-[(2,4-dichlorophenyl)thio]-2-methylpropanoyl}amino)-8-azabicyclo[3.2.1]oct-8-yl]pyridine-3-carboxamide] | < 200 nM
CC(C)(Oc1ccc(Cl)cc1Cl)C(=O)N[C@H]1C[C@H]2CC[C@@H](C1)N2c1ccc(C(=O)NC2CC2)c(F)c1 [Example 130, N-cyclopropyl-4-[3-endo-({2-[(2,4-dichlorophenyl)oxy]-2-methylpropanoyl}amino)-8-azabicyclo[3.2.1]oct-8-yl]-2-fluorobenzamide] | < 200 nM
CC(C)(Oc1ncc(Cl)cc1F)C(=O)N[C@H]1C[C@H]2CC[C@@H](C1)N2c1ccc(S(C)(=O)=O)cn1 [Example 194, 2-[(5-chloro-3-fluoropyridin-2-yl)oxy]-2-methyl-N-{8-[5-(methylsulfonyl)pyridin-2-yl]-8-azabicyclo[3.2.1]oct-3-endo-yl}propanamide] | < 2000 nM
CC(C)(Oc1ccc(F)cc1Cl)C(=O)N[C@H]1C[C@H]2CC[C@@H](C1)N2c1ccc(S(N)(=O)=O)cn1 [Example 158, N-{8-[5-(aminosulfonyl)pyridin-2-yl]-8-azabicyclo[3.2.1]oct-3-endo-yl}-2-[(2-chloro-4-fluorophenyl)oxy]-2-methylpropanamide] | < 200 nM
CC(C)(Oc1ccc(F)cc1Cl)C(=O)N[C@H]1C[C@H]2CC[C@@H](C1)N2c1ccc(C(=O)NCC(F)F)cn1 [Example 371, 6-(3-endo-{[2-(2-chloro-4-fluorophenoxy)-2-methylpropanoyl]amino}-8-azabicyclo[3.2.1]oct-8-yl)-N-(2,2-difluoroethyl)pyridine-3-carboxamide] | < 200 nM
Cc1cc(C(=O)NC2CC2)cnc1N1[C@@H]2CC[C@H]1C[C@@H](NC(=O)C(C)(C)Oc1ccc(Cl)cc1)C2 [Example 40, 6-[3-endo-({2-[(4-chlorophenyl)oxy]-2-methylpropanoyl}amino)-8-azabicyclo[3.2.1]oct-8-yl]-N-cyclopropyl-5-methylpyridine-3-carboxamide] | < 200 nM
CC(C)(Oc1ccc(Cl)cc1Cl)C(=O)N[C@H]1C[C@H]2CC[C@@H](C1)N2c1ccc(NC(=O)CC(F)(F)F)cc1F [Example 139, N-{4-[3-endo-({2-[(2,4-dichlorophenyl)oxy]-2-methylpropanoyl}amino)-8-azabicyclo[3.2.1]oct-8-yl]-3-fluorophenyl}-3,3,3-trifluoropropanamide] | < 200 nM
O=C(NCC(F)(F)F)c1ccc(N2[C@@H]3CC[C@H]2C[C@@H](NC(=O)C2(c4ccc(F)c(F)c4)CC2)C3)nc1 [Example 121, 6-[3-endo-({[1-(3,4-difluorophenyl)cyclopropyl]carbonyl}amino)-8-azabicyclo[3.2.1]oct-8-yl]-N-(2,2,2-trifluoroethyl)pyridine-3-carboxamide] | < 200 nM
CC(C)(Oc1ccc(Cl)cc1C(F)F)C(=O)N[C@H]1C[C@H]2CC[C@@H](C1)N2c1ccc(C(=O)NCC(F)F)cn1 [Example 433, 6-[3-endo-({2-[4-chloro-2-(difluoromethyl)phenoxy]-2-methylpropanoyl}amino)-8-azabicyclo[3.2.1]oct-8-yl]-N-(2,2-difluoroethyl)pyridine-3-carboxamide] | < 200 nM
CC(=O)Nc1ccc(N2[C@@H]3CC[C@H]2C[C@@H](NC(=O)C2(c4ccc(Cl)cc4)CC2)C3)nc1 [Example 58, N-{8-[5-(acetylamino)pyridin-2-yl]-8-azabicyclo[3.2.1]oct-3-endo-yl}-1-(4-chlorophenyl)cyclopropanecarboxamide] | < 200 nM
CC(C)(Oc1cc(F)c(Cl)cc1Cl)C(=O)N[C@H]1C[C@H]2CC[C@@H](C1)N2c1ccc(C(=O)NCC(F)F)cn1 [Example 436, 6-(3-endo-{[2-(2,4-dichloro-5-fluorophenoxy)-2-methylpropanoyl]amino}-8-azabicyclo[3.2.1]oct-8-yl)-N-(2,2-difluoroethyl)pyridine-3-carboxamide] | < 200 nM
CC(C)(Oc1ccc(Cl)cc1)C(=O)N[C@H]1C[C@H]2CC[C@@H](C1)N2c1ccc(C#N)cn1 [Example 32, 2-[(4-chlorophenyl)oxy]-N-[8-(5-cyanopyridin-2-yl)-8-azabicyclo[3.2.1]oct-3-endo-yl]-2-methylpropanamide] | < 200 nM
CC(C)(Oc1ncc(Cl)cc1Cl)C(=O)N[C@H]1C[C@H]2CC[C@@H](C1)N2c1ncc(C(=O)NCC(F)(F)F)cc1F [Example 161, 6-[3-endo-({2-[(3,5-dichloropyridin-2-yl)oxy]-2-methylpropanoyl}amino)-8-azabicyclo[3.2.1]oct-8-yl]-5-fluoro-N-(2,2,2-trifluoroethyl)pyridine-3-carboxamide] | < 200 nM
CC(C)(Oc1ccc(Cl)cc1C(F)(F)F)C(=O)N[C@H]1C[C@H]2CC[C@@H](C1)N2c1ccc(C(=O)NCC(F)(F)F)cn1 [Example 144, 6-{3-endo-[(2-{[4-chloro-2-(trifluoromethyl)phenyl]oxy}-2-methylpropanoyl)amino]-8-azabicyclo[3.2.1]oct-8-yl}-N-(2,2,2-trifluoroethyl)pyridine-3-carboxamide] | < 200 nM
CC(C)(Oc1ccc(F)c(Cl)c1Cl)C(=O)N[C@H]1C[C@H]2CC[C@@H](C1)N2c1ccc(S(C)(=O)=O)cn1 [Example 153, 2-[(2,3-dichloro-4-fluorophenyl)oxy]-2-methyl-N-{8-[5-(methylsulfonyl)pyridin-2-yl]-8-azabicyclo[3.2.1]oct-3-endo-yl}propanamide] | < 200 nM
CC(C)(Oc1ccc(F)c(Cl)c1Cl)C(=O)N[C@H]1C[C@H]2CC[C@@H](C1)N2c1ccc(NS(C)(=O)=O)cn1 [Example 290, 2-[(2,3-dichloro-4-fluorophenyl)oxy]-2-methyl-N-(8-{5-[(methylsulfonyl)amino]pyridin-2-yl}-8-azabicyclo[3.2.1]oct-3-endo-yl)propanamide] | < 200 nM
CC(C)(Oc1ccc(Cl)cc1C(F)F)C(=O)N[C@H]1C[C@H]2CC[C@@H](C1)N2c1ccc(S(C)(=O)=O)cn1 [Example 365, 2-[4-chloro-2-(difluoromethyl)phenoxy]-2-methyl-N-{8-[5-(methylsulfonyl)pyridin-2-yl]-8-azabicyclo[3.2.1]oct-3-endo-yl}propanamide] | < 200 nM
CC(C)(Sc1ccc(Cl)cc1Cl)C(=O)N[C@H]1C[C@H]2CC[C@@H](C1)N2c1ccc(S(C)(=O)=O)cn1 [Example 328, 2-[(2,4-dichlorophenyl)thio]-2-methyl-N-{8-[5-(methylsulfonyl)pyridin-2-yl]-8-azabicyclo[3.2.1]oct-3-endo-yl}propanamide] | < 200 nM
CC(C)(Oc1ccc(F)cc1Cl)C(=O)NC1CC2CCC(C1)N2c1ccc(C(=O)NCC(O)C(F)(F)F)cn1 (stereo not drawn) [Example 457, 6-(3-endo-{[2-(2-chloro-4-fluorophenoxy)-2-methylpropanoyl]amino}-8-azabicyclo[3.2.1]oct-8-yl)-N-(3,3,3-trifluoro-2-hydroxypropyl)pyridine-3-carboxamide] | < 200 nM
CC(C)(Oc1ccc(F)cc1F)C(=O)N[C@H]1C[C@H]2CC[C@@H](C1)N2c1ccc(S(C)(=O)=O)cn1 [Example 200, 2-[(2,4-difluorophenyl)oxy]-2-methyl-N-{8-[5-(methylsulfonyl)pyridin-2-yl]-8-azabicyclo[3.2.1]oct-3-endo-yl}propanamide] | < 200 nM
CC(C)(Oc1ccc(Cl)cc1Cl)C(=O)N[C@H]1C[C@H]2CC[C@@H](C1)N2c1ccc(NC(=O)NCC(F)(F)F)cc1 [Example 135, 2-[(2,4-dichlorophenyl)oxy]-2-methyl-N-{8-[4-({[(2,2,2-trifluoroethyl)amino]carbonyl}amino)phenyl]-8-azabicyclo[3.2.1]oct-3-endo-yl}propanamide] | < 200 nM
CC(C)(O)CNC(=O)c1ccc(N2[C@@H]3CC[C@H]2C[C@@H](NC(=O)C(C)(C)Oc2cc(C(C)(C)O)c(Cl)cc2Cl)C3)nc1 [Example 336, 6-[3-endo-({2-[2,4-dichloro-5-(2-hydroxypropan-2-yl)phenoxy]-2-methylpropanoyl}amino)-8-azabicyclo[3.2.1]oct-8-yl]-N-(2-hydroxy-2-methylpropyl)pyridine-3-carboxamide] | < 200 nM
CC(C)(Oc1cc(CC(=O)O)c(Cl)cc1Cl)C(=O)N[C@H]1C[C@H]2CC[C@@H](C1)N2c1ccc(C(=O)NCC(F)F)cn1 [Example 460, [2,4-dichloro-5-({1-[(8-{5-[(2,2-difluoroethyl)carbamoyl]pyridin-2-yl}-8-azabicyclo[3.2.1]oct-3-endo-yl)amino]-2-methyl-1-oxopropan-2-yl}oxy)phenyl]acetic acid] | < 200 nM
CC(C)(Oc1ccc(Cl)c(F)c1)C(=O)N[C@H]1C[C@H]2CC[C@@H](C1)N2c1ccc(C(=O)NCC(F)(F)F)cn1 [Example 77, 6-[3-endo-({2-[(4-chloro-3-fluorophenyl)oxy]-2-methylpropanoyl}amino)-8-azabicyclo[3.2.1]oct-8-yl]-N-(2,2,2-trifluoroethyl)pyridine-3-carboxamide] | < 200 nM
C[C@@H](NC(=O)c1ccc(N2C3CCC2CC(NC(=O)C(C)(C)Oc2ccc(F)cc2Cl)C3)nc1)C(F)(F)F (stereo partly drawn) [Example 452, 6-(3-endo-{[2-(2-chloro-4-fluorophenoxy)-2-methylpropanoyl]amino}-8-azabicyclo[3.2.1]oct-8-yl)-N-[(2R)-1,1,1-trifluoropropan-2-yl]pyridine-3-carboxamide] | < 200 nM
